# Data published in paper PMC6934184, “Selective DNA-PKcs inhibition extends the therapeutic index of localized radiotherapy and chemotherapy” (The Journal of Clinical Investigation, 2019).
# Biological target: T1, FGFR4 (Homo sapiens, UniProt P22455)
# T1 construct: purchased Thermo Fisher Scientific (Life Technologies) SelectScreen
# Assay: SelectScreen Z'LYTE
# Format: biochemical
# In short: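 SelectScreen broad panel; activity (Z'LYTE, Adapta) plus binding formats. ATP: Km app for CSF1R Z'LYTE; 10 for CAMK1 Adapta. Readout = % per kinase.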
# T1 sequence (P22455 22-802): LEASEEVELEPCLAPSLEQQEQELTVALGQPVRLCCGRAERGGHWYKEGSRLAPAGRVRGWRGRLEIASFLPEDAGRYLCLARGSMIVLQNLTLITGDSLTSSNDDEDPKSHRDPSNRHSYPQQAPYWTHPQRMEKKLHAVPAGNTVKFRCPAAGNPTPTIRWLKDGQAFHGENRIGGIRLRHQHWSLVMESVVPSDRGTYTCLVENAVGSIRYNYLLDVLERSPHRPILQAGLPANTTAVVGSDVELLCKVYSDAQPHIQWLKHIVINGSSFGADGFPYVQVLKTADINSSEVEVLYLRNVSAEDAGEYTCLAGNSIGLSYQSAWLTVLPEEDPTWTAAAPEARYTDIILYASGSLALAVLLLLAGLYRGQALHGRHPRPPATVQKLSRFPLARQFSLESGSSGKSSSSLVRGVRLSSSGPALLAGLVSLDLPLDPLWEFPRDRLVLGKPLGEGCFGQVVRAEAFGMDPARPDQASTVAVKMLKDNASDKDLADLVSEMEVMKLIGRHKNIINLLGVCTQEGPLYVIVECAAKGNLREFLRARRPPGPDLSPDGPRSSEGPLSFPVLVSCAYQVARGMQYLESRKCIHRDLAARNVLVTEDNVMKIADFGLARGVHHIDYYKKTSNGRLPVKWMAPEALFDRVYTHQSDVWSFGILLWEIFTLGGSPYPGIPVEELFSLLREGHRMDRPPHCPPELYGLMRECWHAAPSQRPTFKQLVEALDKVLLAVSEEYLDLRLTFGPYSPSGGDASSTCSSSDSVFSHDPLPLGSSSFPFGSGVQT
smiles,measurement,value
CN(C(=O)CN1CCOCC1)c1ccc2sc3c(-c4cccc5c(=O)cc(N6CC7CCC(C6)O7)oc45)cccc3c2c1 [NU5455],inhibition at 1 µM,-3.1%
